This passage reports MIC results from patent US4416884A, “Piperazinylbenzoheterocyclic compounds” (Otsuka Pharmaceutical Co., Ltd., priority 1978, dated 1983).

Common to all, as to test: antimicrobial activity, serial dilution method on agar plate
Common to all, as to assay type: cell-based

In assay [1] the test system is Pseudomonas aeruginosa NCTC 10490. As to the method:
(§1) The antimicrobial activity of the following test compounds on various test organisms listed below was determined by the serial dilution method on agar plate (Heart Infusion agar produced by Difco Co.) (see CHEMOTHERAPY 22, pp. 1126-1128 (1974)), and the minimum inhibitory concentrations (mcg/ml) obtained are shown in Table 1 below.
(§2) A sample of each test organism was prepared so that the population of the organism was 1×10^8 cells/ml (O.D. 660 mμ=0.07 to 0.16) and 1×10^6 cells/ml (which was obtained by diluting the above 1×10^8 cells/ml preparation).

Assay [2] deals with Staphylococcus aureus FDA 209 P. As to the method:
as §1, §2

Assay [3] has as its system Salmonella typhi 0-901 (NCTC 8393). The following applies: Salmonella enterica. The procedure:
as §1, §2

Assay [4] has as its system Pseudomonas aeruginosa E-2. The procedure:
as §1, §2

In assay [5] the test system is Proteus rettgeri NIH 96. The following applies: Providencia rettgeri. As to the method:
as §1, §2

In assay [6] the test system is Pseudomonas aeruginosa ATCC 10145. The procedure: as §1, §2
Assay [7] deals with Streptococcus pyogenes IID S-23. As to the method: as §1, §2
Assay [8] deals with Serattia marcescens IFO 12648. The procedure:
as §1, §2

The subject of assay [9] is Shigella Sonnei EW 33. The following applies: inoculum 1 × 10^8 cells/ml, read-out: Minimum Inhibitory Concentration. As to the method:
as §1, §2

Assay [10] relates to Escherichia Coli NIHJ JC-2 (IFO 12734). The following applies: Escherichia coli, read-out: Minimum Inhibitory Concentration. The procedure:
as §1, §2

Assay [11] relates to Klebsiella pneumoniae. As to the method: as §1, §2
[12] abbreviates: NCTC10490, read-out: Minimum Inhibitory Concentration, inoculum 1 × 10^8 cells/ml.
Where [13] appears, read: FDA209, inoculum 1 × 10^8 cells/ml, read-out: Minimum Inhibitory Concentration.
Where [14] appears, read: read-out: Minimum Inhibitory Concentration, inoculum 1 × 10^8 cells/ml.
Where [15] appears, read: E2, inoculum 1 × 10^8 cells/ml, read-out: Minimum Inhibitory Concentration.
Setting [16] is: NIH96, inoculum 1 × 10^8 cells/ml, read-out: Minimum Inhibitory Concentration.
[17] abbreviates: ATCC10145, inoculum 1 × 10^8 cells/ml, read-out: Minimum Inhibitory Concentration.
The mark [18] stands for this setting: IIDS23, inoculum 1 × 10^8 cells/ml, read-out: Minimum Inhibitory Concentration.
Setting [19] is: inoculum 1 × 10^8 cells/ml, read-out: Minimum Inhibitory Concentration.
[20] abbreviates: NCTC10490, inoculum 1 × 10^8 cells/ml, read-out: Minimum Inhibitory Concentration.
Where [21] appears, read: IIDS23, read-out: Minimum Inhibitory Concentration, inoculum 1 × 10^8 cells/ml.

Each structure is given as a SMILES string. Values after ≈ are worked out from the molar mass of the structure shown. Read-outs that look alike come from different tables or passages of the source.

With `CC1CCc2c(N3CCN(C(=O)C(F)(F)F)CC3)c(Cl)cc3c(=O)c(C(=O)O)cn1c23` (stereo not shown) [b], the MIC in assay [1] (setting [12]) is 1.56 µg/mL (≈ 3.41 µM); in assay [2] (setting [13]), 3.13 µg/mL (≈ 6.84 µM); in assay [3] (setting [14]), 0.39 µg/mL (≈ 0.852 µM); in [4] (setting [15]), 3.13 µg/mL (≈ 6.84 µM); in assay [5] (setting [16]), 0.2 µg/mL (≈ 0.437 µM); in [6] (setting [17]) it was 3.13 µg/mL (≈ 6.84 µM). Besides, the MIC was 6.25 µg/mL (≈ 13.7 µM) in [7] (setting [18]); 1.56 µg/mL (≈ 3.41 µM) in [8] (setting [14]); 1.56 µg/mL (≈ 3.41 µM) in [9]; 0.39 µg/mL (≈ 0.852 µM) in assay [10] (inoculum 1 × 10^8 cells/ml); 0.39 µg/mL (≈ 0.852 µM) in assay [11] (setting [19]).
For `CC1CCc2c(N3CCN(CC(F)(F)F)CC3)c(Cl)cc3c(=O)c(C(=O)O)cn1c23` (stereo not shown) [c], the MIC amounted to 0.78 µg/mL (≈ 1.76 µM) in assay [1] (setting [20]); 0.1 µg/mL (≈ 0.225 µM) in assay [2] (setting [13]); 0.2 µg/mL (≈ 0.451 µM) in assay [3] (setting [14]); 6.25 µg/mL (≈ 14.1 µM) in [4] (setting [15]); 0.39 µg/mL (≈ 0.879 µM) in [5] (setting [16]); 3.13 µg/mL (≈ 7.05 µM) in [6] (setting [17]). Moreover, the MIC in assay [7] (setting [21]) is 1.56 µg/mL (≈ 3.51 µM); in [8] (setting [19]) it was 0.39 µg/mL (≈ 0.879 µM); in assay [9], 1.56 µg/mL (≈ 3.51 µM); in assay [10] (inoculum 1 × 10^8 cells/ml), 0.39 µg/mL (≈ 0.879 µM); in assay [11] (setting [19]), 0.39 µg/mL (≈ 0.879 µM).
Regarding `CC1CCc2c(N3CCN(C(=O)C(F)(F)C(F)(F)F)CC3)c(Cl)cc3c(=O)c(C(=O)O)cn1c23` (stereo not shown) [d], the MIC in assay [1] (setting [20]) was found to be 3.13 µg/mL (≈ 6.16 µM); in assay [2] (setting [13]), 1.56 µg/mL (≈ 3.07 µM); in assay [3] (setting [14]), 0.1 µg/mL (≈ 0.197 µM); in assay [4] (setting [15]), 6.25 µg/mL (≈ 12.3 µM); in assay [5] (setting [16]), 0.2 µg/mL (≈ 0.394 µM); in assay [6] (setting [17]), 1.56 µg/mL (≈ 3.07 µM). The MIC was determined as 12.5 µg/mL (≈ 24.6 µM) in assay [7] (setting [18]); 0.2 µg/mL (≈ 0.394 µM) in assay [8] (setting [19]); 0.78 µg/mL (≈ 1.54 µM) in assay [9]; 0.39 µg/mL (≈ 0.768 µM) in [10] (inoculum 1 × 10^8 cells/ml); 0.39 µg/mL (≈ 0.768 µM) in [11] (setting [19]).
For `CC1CCc2c(N3CCN(C(=O)C(F)(F)C(F)(F)C(F)(F)F)CC3)c(Cl)cc3c(=O)c(C(=O)O)cn1c23` (stereo not shown) [e], the MIC in [1] (setting [12]) turned out to be 3.13 µg/mL (≈ 5.61 µM); in assay [2] (FDA209, read-out: Minimum Inhibitory Concentration, inoculum 1 × 10^8 cells/ml) it was 3.13 µg/mL (≈ 5.61 µM); in assay [3] (setting [19]), 0.2 µg/mL (≈ 0.359 µM); in [4] (E2, read-out: Minimum Inhibitory Concentration, inoculum 1 × 10^8 cells/ml) it was 6.25 µg/mL (≈ 11.2 µM); in assay [5] (NIH96, read-out: Minimum Inhibitory Concentration, inoculum 1 × 10^8 cells/ml), 0.2 µg/mL (≈ 0.359 µM); in assay [6] (ATCC10145, read-out: Minimum Inhibitory Concentration, inoculum 1 × 10^8 cells/ml), 1.56 µg/mL (≈ 2.8 µM). Besides, the MIC in [7] (setting [21]) was determined as 6.25 µg/mL (≈ 11.2 µM); in assay [8] (setting [14]), 0.2 µg/mL (≈ 0.359 µM); in assay [9] it was 0.78 µg/mL (≈ 1.4 µM); in assay [10], 0.39 µg/mL (≈ 0.699 µM); in [11] (setting [14]), 0.39 µg/mL (≈ 0.699 µM).
In the case of `CC1CCc2c(N3CCN(CCO)CC3)c(F)cc3c(=O)c(C(=O)O)cn1c23` (stereo not shown) [f], the MIC in assay [1] (setting [20]) stood at 12.5 µg/mL (≈ 32.1 µM); in [2] (setting [13]), 0.78 µg/mL (≈ 2 µM); in [3] (setting [14]), 0.39 µg/mL (≈ 1 µM); in assay [4] (setting [15]), 12.5 µg/mL (≈ 32.1 µM); in [5] (setting [16]) it was 0.2 µg/mL (≈ 0.514 µM); in assay [6] (setting [17]) it was 6.25 µg/mL (≈ 16 µM). The MIC in [7] (setting [18]) is 3.13 µg/mL (≈ 8.04 µM); in assay [8] (setting [19]), 0.39 µg/mL (≈ 1 µM); in [9], 0.78 µg/mL (≈ 2 µM); in [10] (inoculum 1 × 10^8 cells/ml), 0.39 µg/mL (≈ 1 µM); in [11] (setting [19]) it was 0.78 µg/mL (≈ 2 µM).
As for `COc1ccc(CN2CCN(c3c(Cl)cc4c(=O)c(C(=O)O)cn5c4c3CCC5C)CC2)cc1` (stereo not shown) [g], the MIC amounted to 12.5 µg/mL (≈ 25.9 µM) in assay [1] (setting [20]); 0.78 µg/mL (≈ 1.62 µM) in assay [2] (setting [13]); 0.78 µg/mL (≈ 1.62 µM) in assay [3] (setting [14]); 12.5 µg/mL (≈ 25.9 µM) in assay [4] (setting [15]); 0.1 µg/mL (≈ 0.207 µM) in [5] (setting [16]); 6.25 µg/mL (≈ 13 µM) in assay [6] (setting [17]). Moreover, the MIC in assay [7] (setting [18]) was 3.13 µg/mL (≈ 6.49 µM); in assay [8] (setting [19]), 0.39 µg/mL (≈ 0.809 µM); in assay [9], 1.56 µg/mL (≈ 3.24 µM); in assay [10] (inoculum 1 × 10^8 cells/ml), 0.78 µg/mL (≈ 1.62 µM); in [11] (setting [19]) it was 0.78 µg/mL (≈ 1.62 µM).
With `C=CCN1CCN(c2c(Cl)cc3c(=O)c(C(=O)O)cn4c3c2CCC4C)CC1` (stereo not shown) [h], the MIC in [1] (setting [20]) stood at 12.5 µg/mL (≈ 31.1 µM); in assay [2] (setting [13]) it was 0.78 µg/mL (≈ 1.94 µM); in assay [3] (setting [14]), 0.78 µg/mL (≈ 1.94 µM); in assay [4] (setting [15]), 12.5 µg/mL (≈ 31.1 µM); in assay [5] (setting [16]) it was 0.2 µg/mL (≈ 0.498 µM); in [6] (setting [17]), 12.5 µg/mL (≈ 31.1 µM). Besides, the MIC in [7] (setting [18]) was found to be 3.13 µg/mL (≈ 7.79 µM); in assay [8] (setting [19]) it was 0.78 µg/mL (≈ 1.94 µM); in assay [9], 1.56 µg/mL (≈ 3.88 µM); in assay [10] (inoculum 1 × 10^8 cells/ml), 0.78 µg/mL (≈ 1.94 µM); in assay [11] (setting [19]), 0.78 µg/mL (≈ 1.94 µM).
Consider `C#CCN1CCN(c2c(Cl)cc3c(=O)c(C(=O)O)cn4c3c2CCC4C)CC1` (stereo not shown) [i], for which the MIC worked out at 12.5 µg/mL (≈ 31.3 µM) in assay [1] (setting [20]); 0.39 µg/mL (≈ 0.975 µM) in [2] (setting [13]); 0.78 µg/mL (≈ 1.95 µM) in [3] (setting [14]); 25 µg/mL (≈ 62.5 µM) in [4] (setting [15]); 0.2 µg/mL (≈ 0.5 µM) in assay [5] (setting [16]); 12.5 µg/mL (≈ 31.3 µM) in [6] (setting [17]). In addition, the MIC in assay [7] (setting [21]) worked out at 1.56 µg/mL (≈ 3.9 µM); in assay [8] (setting [19]), 0.78 µg/mL (≈ 1.95 µM); in assay [9] it was 1.56 µg/mL (≈ 3.9 µM); in assay [10], 1.56 µg/mL (≈ 3.9 µM); in assay [11] (setting [19]), 0.78 µg/mL (≈ 1.95 µM).
